Molecules are shown by their SMILES. “And” between values parts separate entries of the source, which are not always exact repeats. Equal entries are not always repeated.

For assay [1], the system named is Kappas-299 cells containing NPM-ALK fusion protein. Description: 4-day cell viability assay (CellTiter-Glo), Kappas-299. Format: cell-based. To be noted: NPM-ALK, 96 h, inhibition of cell growth, 4 days, multiple values from independent experiments. On the procedure:
The effect of compounds on cell viability was determined in a 4-day proliferation assay. Cells were maintained in RPMI1640 culture medium with 10% FBS at 37° C. and an atmosphere of 5% CO2. […] Cells were seeded in 96-well plates at a density of 3,000-10,000 cells/well in 75 μl of culture medium. Compounds were serially diluted in the appropriate medium, and 75 μl of the diluted compounds were added to the appropriate wells of the cell plate. After the addition of compounds, the cells were incubated at 37° C. in an atmosphere of 5% CO2 for 4 days. Cell viability was determined using the CellTiter-Glo® Luminescent Cell Viability Assay Kit (Promega, Madison, Wis.) (for KARPAS-299 cells) or WST (2-(2-methoxy-4-nitrophenyl)-3-(4-nitrophenyl)-5-(2,4-disulfophenyl)-2H-tetrazolium, monosodium salt) Cell Counting-8 Kit (Dojindo Molecular Technologies, Inc., Rockville, Md.) (for H3122 cells) according to the manufacturers' instructions.
For CellTiter-Glo assay, 100 μl of CellTiter-Glo® Reagent was added to each well, and then the plates were incubated at room temperature for 10-20 minutes. The luminescent signal was measured using a Tecan Infinite M1000 multimode microplate reader (Tecan, Morrisville, N.C.). The readings were normalized to the DMSO-treated cells and the IC50 was calculated by nonlinear regression analysis using the GraphPad Prism 5 software.
Cells were treated for four days and cell growth was determined using a CellTiter-Glo assay.
On the technique in general: ATP-based viability assays read luminescence as a measure of living cells.

Assay [2] deals with wild-type human ALK protein (cytoplasmic domain, amino acid 1058-1620, GST-fusion) (Homo sapiens, UniProt Q9UM73). Description: biochemical. To be noted: 100 μM ATP.
The target in the next assay is ALK mutant (G1269A) (Homo sapiens, UniProt Q9UM73, G1269A). Description: biochemical. To be noted: 100 μM ATP.
Another assay has as its target ALK mutant (S1206Y) (Homo sapiens, UniProt Q9UM73, S1206Y). Description: biochemical.

Sequence of wild-type human ALK protein (cytoplasmic domain, amino acid 1058-1620, GST-fusion) (Q9UM73 1058-1620): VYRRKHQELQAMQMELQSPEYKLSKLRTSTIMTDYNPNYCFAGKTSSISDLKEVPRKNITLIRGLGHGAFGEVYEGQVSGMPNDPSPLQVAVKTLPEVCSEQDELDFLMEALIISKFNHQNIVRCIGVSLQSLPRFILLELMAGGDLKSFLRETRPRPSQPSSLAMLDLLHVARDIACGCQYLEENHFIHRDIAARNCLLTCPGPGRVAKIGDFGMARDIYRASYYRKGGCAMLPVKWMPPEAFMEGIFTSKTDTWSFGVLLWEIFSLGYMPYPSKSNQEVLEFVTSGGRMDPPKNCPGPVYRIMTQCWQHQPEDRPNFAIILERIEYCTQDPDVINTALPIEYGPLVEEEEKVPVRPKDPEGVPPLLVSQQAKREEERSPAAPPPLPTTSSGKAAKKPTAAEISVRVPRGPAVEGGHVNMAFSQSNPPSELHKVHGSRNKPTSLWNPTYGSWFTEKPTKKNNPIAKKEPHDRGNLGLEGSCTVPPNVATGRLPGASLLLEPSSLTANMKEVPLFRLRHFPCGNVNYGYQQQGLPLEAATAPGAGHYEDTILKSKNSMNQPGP
Sequence of ALK mutant (G1269A) (Q9UM73 19-1620 G1269A): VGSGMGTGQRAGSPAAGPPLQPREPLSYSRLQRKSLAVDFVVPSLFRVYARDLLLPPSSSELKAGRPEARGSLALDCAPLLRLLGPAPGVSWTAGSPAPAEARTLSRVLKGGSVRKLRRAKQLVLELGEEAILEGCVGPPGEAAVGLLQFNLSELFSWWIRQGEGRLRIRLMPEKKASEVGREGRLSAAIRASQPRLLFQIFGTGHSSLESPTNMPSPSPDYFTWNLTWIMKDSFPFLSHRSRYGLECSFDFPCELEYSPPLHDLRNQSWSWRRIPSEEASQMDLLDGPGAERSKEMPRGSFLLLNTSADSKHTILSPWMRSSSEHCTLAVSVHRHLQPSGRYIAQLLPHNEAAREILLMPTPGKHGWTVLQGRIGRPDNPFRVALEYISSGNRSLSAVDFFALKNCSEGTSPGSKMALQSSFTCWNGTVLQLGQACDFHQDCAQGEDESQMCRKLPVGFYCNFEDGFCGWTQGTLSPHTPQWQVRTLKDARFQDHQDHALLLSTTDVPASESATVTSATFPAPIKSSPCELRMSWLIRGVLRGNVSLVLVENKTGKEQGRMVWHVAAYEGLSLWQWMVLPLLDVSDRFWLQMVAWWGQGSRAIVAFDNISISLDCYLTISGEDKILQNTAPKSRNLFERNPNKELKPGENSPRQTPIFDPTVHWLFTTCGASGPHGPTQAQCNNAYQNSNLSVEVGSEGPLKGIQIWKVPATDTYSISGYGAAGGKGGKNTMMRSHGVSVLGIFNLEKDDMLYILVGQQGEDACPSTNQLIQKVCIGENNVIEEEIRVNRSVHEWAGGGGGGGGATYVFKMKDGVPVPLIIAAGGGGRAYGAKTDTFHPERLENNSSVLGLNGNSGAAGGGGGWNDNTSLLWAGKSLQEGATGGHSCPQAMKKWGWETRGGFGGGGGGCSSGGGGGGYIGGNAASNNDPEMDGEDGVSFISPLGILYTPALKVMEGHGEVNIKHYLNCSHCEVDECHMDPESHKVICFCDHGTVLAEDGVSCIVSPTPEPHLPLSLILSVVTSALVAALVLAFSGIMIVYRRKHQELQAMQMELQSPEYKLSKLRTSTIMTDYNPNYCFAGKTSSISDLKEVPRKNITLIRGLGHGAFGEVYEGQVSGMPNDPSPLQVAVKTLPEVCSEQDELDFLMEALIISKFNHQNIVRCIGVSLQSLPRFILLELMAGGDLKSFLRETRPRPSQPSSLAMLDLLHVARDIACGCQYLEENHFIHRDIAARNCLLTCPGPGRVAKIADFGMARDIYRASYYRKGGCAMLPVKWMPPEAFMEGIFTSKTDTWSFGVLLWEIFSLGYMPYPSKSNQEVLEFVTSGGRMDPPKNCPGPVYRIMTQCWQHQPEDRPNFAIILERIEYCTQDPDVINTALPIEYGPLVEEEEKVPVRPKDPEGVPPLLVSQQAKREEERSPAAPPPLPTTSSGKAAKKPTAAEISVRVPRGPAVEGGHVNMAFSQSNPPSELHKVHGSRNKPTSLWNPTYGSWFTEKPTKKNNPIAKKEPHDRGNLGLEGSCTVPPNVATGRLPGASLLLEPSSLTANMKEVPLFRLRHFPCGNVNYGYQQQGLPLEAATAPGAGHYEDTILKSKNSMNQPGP
Sequence of ALK mutant (S1206Y) (Q9UM73 19-1620 S1206Y): as the sequence (Q9UM73 19-1620 G1269A) above, with S1188Y, A1251G counted along it

The term IC50 denotes the concentration that gives 50% inhibition. A higher IC50 goes with weaker potency in that assay. On to `C#Cc1cc2c(=O)c3c4ccc(C#N)cc4[nH]c3n(C(C)C)c2cc1N1CCN(C)CC1` [ALK-71, 2-Ethynyl-5-isopropyl-3-(4-methylpiperazin-1-yl)-11-oxo-6,11-dihydro-5H-indolo[2,3-b]quinoline-8-carbonitrile], for which the IC50 in assay [1] is 31 nM; in assay [2] (ALK IC50, wild-type ALK), 0.31 nM; in assay [2] (IC50 ALK Wild-type, Table 2, wild-type ALK) it was 0.31 nM; on ALK mutant (G1269A), 0.47 nM and 0.55 nM; on ALK mutant (S1206Y) it was 1.3 nM.

(Values after patent US9783539B2, “Indoloquinolone compounds as anaplastic lymphoma kinase (ALK) inhibitors” (Jiangsu Ascentage Biomed Development Inc., priority 2014, dated 2017).)
